Measurements from PubChem BioAssay (NCI).
Values joined by “and” are separate entries in the source; they are usually repeats but may differ in a detail not shown here. Equal values may be shown once.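 Protocol summary: plate cells (96-well), add compound at 5 concentrations, incubate 48 h, interpolate endpoints linearly. GI50: concentration for 50% inhibition of growth. TGI: total growth inhibition.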

These molecules were tested on MDA-MB-468 breast (assay: NCI anticancer screen, dose series, 48 h).

Going from `CCCCCCCCCCCCNC(=O)[C@H]1CSC(c2cc3ccccc3s2)N1` (stereo partly specified) to `O=C(CCCCCCCn1cc(-c2cccnc2)nn1)Nc1ccccc1-c1ccccc1`, the GI50 rises from 1.09 µM to 4.74 µM (4.3-fold).

Compared with `C=C(C)[C@@H]1CC[C@]2(C(N)=O)CC[C@]3(C)[C@H](CC[C@@H]4[C@@]5(C)CC[C@H](O)C(C)(C)[C@@H]5CC[C@]43C)[C@@H]12`, `COC(=O)[C@H]1C(=O)[C@@]2(C)[C@H]([C@H](OC(=O)c3ccccc3)[C@]3(O)C[C@H](OC(=O)[C@H](O)[C@@H](NC(=O)c4ccc(F)cc4)c4ccccc4)C(C)=C1C3(C)C)[C@]1(OC(C)=O)CO[C@@H]1C[C@@H]2O` is 370-fold lower in GI50: 3.2 µM for the first, 0.00874 µM for the second.

Compared with `Nc1ccccc1SC(CC(=O)c1ccccc1)c1ccc([N+](=O)[O-])cc1` (stereo unspecified), `O=C(N/N=C/c1ccccc1O)C(O)(c1ccccc1)c1ccccc1` is 3.1-fold lower in GI50: 14.4 µM for the first, 4.62 µM for the second.

Compared with `CC(C)CCSC1=CC(=O)c2ccccc2C1=O`, `CCC(CC)n1c(=O)c(SC2=NC3C(NN2)N(CC)C(=O)N3CC)c(C(=O)O)c2ccccc21` (stereo unspecified) is 2.1-fold higher in GI50: 0.43 µM for the first, 0.92 µM for the second.

First: O=C1Oc2ccccc2C(=O)/C1=C/N1C(=O)/C(=C/c2ccc3c(c2)OCO3)SC1=S
Second: COc1ccccc1-c1cc(/C=C2\C(=O)Nc3ncc(Br)cc32)cc(Br)c1O
The GI50 of the first is 1.6-fold higher: 12.1 µM for the first, 7.4 µM for the second.

Going from `COc1cc(-c2nc(NC(C)=O)sc2-c2ccnc(NCCNS(=O)(=O)c3ccccc3)n2)ccc1Cl` to `Cc1cccc(-c2nn3c(c2-c2ccnc4ccc(C(N)=O)cc24)CCC3)n1`, the GI50 rises from 2.56 µM to > 100 µM.

First: COc1ccccc1/C=C/C(=O)c1c(O)cc2occc2c1OC
Second: O=Nc1ccc(O)c2ccccc12
The GI50 of the first is 1.8-fold higher: 10.3 µM for the first, 5.85 µM for the second.

`C/C1=C/C(=O)O[C@@H]2C[C@@H](CC[C@H](C)/C=C\C=C\CC1)O[C@@](O)([C@@H]1CSC(=O)N1CO)C2` and `O=C1/C=C/[C@@H](O)[C@@H]2C[C@@H](O)C[C@H]2/C=C/CCC[C@H](CCc2ccc(C(F)(F)F)cc2)O1` are within 1.5-fold of each other in GI50: 0.0243 µM for the first, 0.0281 µM for the second.

First: COc1ccc(-c2nsc3c2NC(=O)CC3c2ccc(F)cc2)cc1 (stereo unspecified)
Second: COc1ccc(CCN2CCCN3C2=Nc2ccccc2S3(=O)=O)cc1
The GI50 of the first is 7-fold higher: 2.18 µM for the first, 0.312 µM for the second.

First: CCN1C(=O)N(CC)C2C1NN=c1s/c(=C\c3ccccc3F)c(=O)n12 (stereo unspecified)
Second: Cc1cc(C(=O)Nc2nc3cccc(Cl)c3n2[C@@H]2CCCCN(C(=O)/C=C/CN(C)C)C2)ccn1
The GI50 of the first is 3.8-fold lower: 0.027 µM for the first, 0.102 µM for the second.

Compared with `Cc1ncc(C(=O)Nc2ccc(CN3CCN(C)CC3)c(C(F)(F)F)c2)cc1C#Cc1cnc(N)c2cnccc12`, `Cn1cc(-c2csc(-c3cn(C)c4ccc(Br)cc34)n2)c2cnccc21` is 11-fold higher in GI50: 0.169 µM for the first, 1.79 µM for the second.

First: C[C@@H](N)C1CCC(C(=O)Nc2ccncc2)CC1 (stereo partly specified)
Second: NC(=NCCCC1(c2ccccc2)CCCC1)Nc1ccc(Cl)cc1
The GI50 of the first is higher: > 100 µM for the first, 1.65 µM for the second.

First: O=C1OC2C(O)COC2(O)C1(O)C(C[N+](=O)[O-])c1ccc(Cl)cc1 (stereo unspecified)
Second: COc1cc2c(F)nccc2cc1C(=O)N[C@@H](c1ccc(F)c(Cl)c1)[C@@H]1C[C@@H](O)CN1
The GI50 of the first is 320-fold higher: 16.9 µM for the first, 0.0527 µM for the second.

Going from `COC(=O)[C@H]1[C@@H](O)[C@@]2(O)c3c(OC)cc(O[C@@H]4O[C@@H]([C@H](O)CO)CO[C@H]4OC)cc3O[C@@]2(c2ccc(OC)cc2)[C@@H]1c1ccccc1` to `COc1cccc(Cn2c(-c3nonc3N)nc3ccccc32)c1`, the GI50 rises from 0.00293 µM to 0.312 µM (110-fold).

Going from `Cc1ccc2c(c1)C(C)Cc1c(ncnc1-n1cnc3cc(C)ccc31)N2C` (stereo unspecified) to `CCN(CC)CCCC(C)Nc1cc(-c2ccc(C(F)(F)F)cc2)c(C#N)c2nc3ccccc3n12` (stereo unspecified), the GI50 rises from 0.0414 µM to 1.75 µM (42-fold).

First: CCNCCC1(CC)C(=O)NC(=O)NC1=O
Second: CC(C)CC1C(=O)N2CCC[C@H]2C2(O)O[C@](NC(=O)C3C=C4c5cccc6[nH]c(Br)c(c56)C[C@H]4N(C)C3)(C(C)C)C(=O)N12 (stereo partly specified)
The GI50 of the first is higher: > 100 µM for the first, 3.09 µM for the second.

`CNC(=O)c1c(NC(=O)c2ccc(C(F)(F)F)cc2)sc2c1CCC(=O)C2` and `O=C1/C(=C\c2ccc(F)cc2)CN(C(=O)c2ccc([N+](=O)[O-])cc2)C/C1=C\c1ccc(F)cc1` are within 1.5-fold of each other in GI50: 0.924 µM for the first, 1.38 µM for the second.

Going from `Cc1ccc(S(=O)(=O)Oc2ccc([N+](=O)[O-])cc2[N+](=O)[O-])cc1` to `NC(=O)C1c2ccccc2C=Cc2ccccc21`, the GI50 rises from 13.2 µM to 78.6 µM (6-fold).

Compared with `N#Cc1nc(-c2ccccc2)oc1S(=O)(=O)N1CCCCC1`, `CN[C@@H](C)C(=O)N[C@H]1CN(C(=O)CC(C)C)CC[C@H]2CC[C@@H](C(=O)NC(c3ccccc3)c3ccccc3)N2C1=O` is 3.8-fold higher in GI50: 10.2 µM for the first, 39.2 µM for the second.

Work on `O=C1CC2(CCOCC2)Oc2ncccc21` yielded a GI50 of 3.23 µM.

Compared with `CCCCCCCCCCCCNC(=O)[C@H]1CSC(c2cc3ccccc3s2)N1` (stereo partly specified), `O=C(CCCCCCCn1cc(-c2cccnc2)nn1)Nc1ccccc1-c1ccccc1` is higher in TGI: 4.11 µM for the first, > 51.6 µM for the second.

First: C=C(C)[C@@H]1CC[C@]2(C(N)=O)CC[C@]3(C)[C@H](CC[C@@H]4[C@@]5(C)CC[C@H](O)C(C)(C)[C@@H]5CC[C@]43C)[C@@H]12
Second: COC(=O)[C@H]1C(=O)[C@@]2(C)[C@H]([C@H](OC(=O)c3ccccc3)[C@]3(O)C[C@H](OC(=O)[C@H](O)[C@@H](NC(=O)c4ccc(F)cc4)c4ccccc4)C(C)=C1C3(C)C)[C@]1(OC(C)=O)CO[C@@H]1C[C@@H]2O
The TGI of the first is 1.8-fold higher: 11.9 µM for the first, 6.46 µM for the second.

Going from `Nc1ccccc1SC(CC(=O)c1ccccc1)c1ccc([N+](=O)[O-])cc1` (stereo unspecified) to `O=C(N/N=C/c1ccccc1O)C(O)(c1ccccc1)c1ccccc1`, the TGI rises from 31 µM to > 100 µM.

Going from `CC(C)CCSC1=CC(=O)c2ccccc2C1=O` to `CCC(CC)n1c(=O)c(SC2=NC3C(NN2)N(CC)C(=O)N3CC)c(C(=O)O)c2ccccc21` (stereo unspecified), the TGI rises from 2.19 µM to 27.8 µM (13-fold).

`O=C1Oc2ccccc2C(=O)/C1=C/N1C(=O)/C(=C/c2ccc3c(c2)OCO3)SC1=S` and `COc1ccccc1-c1cc(/C=C2\C(=O)Nc3ncc(Br)cc32)cc(Br)c1O` cannot be ordered by TGI: 42 µM for the first, > 25 µM for the second.

First: COc1cc(-c2nc(NC(C)=O)sc2-c2ccnc(NCCNS(=O)(=O)c3ccccc3)n2)ccc1Cl
Second: Cc1cccc(-c2nn3c(c2-c2ccnc4ccc(C(N)=O)cc24)CCC3)n1
The TGI of the first is lower: 9.61 µM for the first, > 100 µM for the second.

First: COc1ccccc1/C=C/C(=O)c1c(O)cc2occc2c1OC
Second: O=Nc1ccc(O)c2ccccc12
The TGI of the first is 1.7-fold higher: 45.5 µM for the first, 27.4 µM for the second.

`C/C1=C/C(=O)O[C@@H]2C[C@@H](CC[C@H](C)/C=C\C=C\CC1)O[C@@](O)([C@@H]1CSC(=O)N1CO)C2` and `O=C1/C=C/[C@@H](O)[C@@H]2C[C@@H](O)C[C@H]2/C=C/CCC[C@H](CCc2ccc(C(F)(F)F)cc2)O1` are within 1.5-fold of each other in TGI: 0.0765 µM for the first, 0.0829 µM for the second.

`COc1ccc(-c2nsc3c2NC(=O)CC3c2ccc(F)cc2)cc1` (stereo unspecified) and `COc1ccc(CCN2CCCN3C2=Nc2ccccc2S3(=O)=O)cc1` cannot be ordered by TGI: > 30 µM for the first, > 100 µM for the second.

Going from `CCN1C(=O)N(CC)C2C1NN=c1s/c(=C\c3ccccc3F)c(=O)n12` (stereo unspecified) to `Cc1cc(C(=O)Nc2nc3cccc(Cl)c3n2[C@@H]2CCCCN(C(=O)/C=C/CN(C)C)C2)ccn1`, the TGI falls from > 48.1 µM to 1.27 µM.

Going from `Cc1ncc(C(=O)Nc2ccc(CN3CCN(C)CC3)c(C(F)(F)F)c2)cc1C#Cc1cnc(N)c2cnccc12` to `Cn1cc(-c2csc(-c3cn(C)c4ccc(Br)cc34)n2)c2cnccc21`, the TGI rises from 1.69 µM to 3.46 µM (2-fold).

Going from `C[C@@H](N)C1CCC(C(=O)Nc2ccncc2)CC1` (stereo partly specified) to `NC(=NCCCC1(c2ccccc2)CCCC1)Nc1ccc(Cl)cc1`, the TGI falls from > 100 µM to 3.25 µM.

Compared with `O=C1OC2C(O)COC2(O)C1(O)C(C[N+](=O)[O-])c1ccc(Cl)cc1` (stereo unspecified), `COc1cc2c(F)nccc2cc1C(=O)N[C@@H](c1ccc(F)c(Cl)c1)[C@@H]1C[C@@H](O)CN1` is 19-fold lower in TGI: 44 µM for the first, 2.33 µM for the second.

Compared with `COC(=O)[C@H]1[C@@H](O)[C@@]2(O)c3c(OC)cc(O[C@@H]4O[C@@H]([C@H](O)CO)CO[C@H]4OC)cc3O[C@@]2(c2ccc(OC)cc2)[C@@H]1c1ccccc1`, `CCN(CC)CCCC(C)Nc1cc(-c2ccc(C(F)(F)F)cc2)c(C#N)c2nc3ccccc3n12` (stereo unspecified) is 300-fold higher in TGI: 0.0112 µM for the first, 3.35 µM for the second.

`Cc1ccc2c(c1)C(C)Cc1c(ncnc1-n1cnc3cc(C)ccc31)N2C` (stereo unspecified) and `Cc1ccc(S(=O)(=O)Oc2ccc([N+](=O)[O-])cc2[N+](=O)[O-])cc1` are within 1.5-fold of each other in TGI: 19 µM for the first, 28.4 µM for the second.

Going from `CCNCCC1(CC)C(=O)NC(=O)NC1=O` to `CC(C)CC1C(=O)N2CCC[C@H]2C2(O)O[C@](NC(=O)C3C=C4c5cccc6[nH]c(Br)c(c56)C[C@H]4N(C)C3)(C(C)C)C(=O)N12` (stereo partly specified), the TGI falls from > 100 µM to 39.3 µM.

`CNC(=O)c1c(NC(=O)c2ccc(C(F)(F)F)cc2)sc2c1CCC(=O)C2` and `O=C1/C(=C\c2ccc(F)cc2)CN(C(=O)c2ccc([N+](=O)[O-])cc2)C/C1=C\c1ccc(F)cc1` are within 1.5-fold of each other in TGI: 3.8 µM for the first, 3.68 µM for the second.

First: N#Cc1nc(-c2ccccc2)oc1S(=O)(=O)N1CCCCC1
Second: CN[C@@H](C)C(=O)N[C@H]1CN(C(=O)CC(C)C)CC[C@H]2CC[C@@H](C(=O)NC(c3ccccc3)c3ccccc3)N2C1=O
The TGI of the first is lower: 28.5 µM for the first, > 100 µM for the second.

Compared with `O=C1CC2(CCOCC2)Oc2ncccc21`, `NC(=O)C1c2ccccc2C=Cc2ccccc21` is higher in TGI: 15.3 µM for the first, > 100 µM for the second.

With `O=C(c1ccc(OCCN2CCCCC2)cc1)c1c(-c2ccc(O)cc2)sc2cc(O)ccc12` the GI50 was 3.04 µM and 3.13 µM.
`CN1CCC(CNc2ccc3ncc(-c4cccc(OC(F)(F)F)c4)n3n2)CC1` was tested, and the GI50 was 1.24 µM and 1.11 µM.

`O=C(c1ccc(OCCN2CCCCC2)cc1)c1c(-c2ccc(O)cc2)sc2cc(O)ccc12` was tested, and the TGI was 15.8 µM and 12.2 µM.
In the case of `CN1CCC(CNc2ccc3ncc(-c4cccc(OC(F)(F)F)c4)n3n2)CC1`, the TGI is reported as 2.74 µM and 3.28 µM.
